Measured values from patent US20110130326A1, “DEFENSINS FOR TREATMENT OF INFECTIVE ENDOCARDITIS” (Novozymes A/S, priority 2009, published 2011).
In brackets after ≈: the same amount, converted by molar mass. Like-named read-outs stand apart in the source and are kept apart here. Marks after values point to notes of the source that are not given here.

Experiments:
MRSA ATCC33591 [1] = test: Experimental rabbit infective endocarditis model, Example 2 (dose response); assay type: in vivo, Staphylococcus aureus; settings: for Staphylococcus aureus densities, Kidneys / Staphylococcus aureus densities, Spleen / Staphylococcus aureus densities, Vegetations: rabbit, 3 days, 24 h after last dose
Experimental: Rabbit IE was induced following transcarotid-transaortic valve indwelling catheterization. At 24 hrs after iv infection with 10^6 cfu MRSA ATCC33591 (ID95 inoculum), animals received either:
i) no therapy (control); ii) endocardisin at 5, 10 or 20 mg/kg, iv, bid; iii) vancomycin at 15 mg/kg, iv, bid; or iv) daptomycin at 12 mg/kg, iv, once-daily;
All regimens were for 3 days. At 24 hours after the last antibiotic dose, target tissues were removed and quantitatively cultured.

MRSA ATCC33591 [2] = test: MIC by broth microdilution assay according to CLSI; assay type: cell-based, Staphylococcus aureus
Experimental: The MICs of endocardisin, vancomycin and daptomycin were determined by a broth microdilution assay according to Clinical Laboratory Standards Institute (CLSI). MIC is defined as the lowest drug concentration completely inhibiting organisms growth.

MRSA ATCC33591 [3] = test: Experimental rabbit aortic infective endocarditis model, Example 1 (end of treatment and relapse); assay type: in vivo, Staphylococcus aureus; settings: for Staphylococcus aureus densities, Kidneys / Staphylococcus aureus densities, Spleen / Staphylococcus aureus densities, Vegetations / Staphylococcus aureus densities, Kidneys (Relapse) / Staphylococcus aureus densities, Spleen (Relapse) / Staphylococcus aureus densities, Vegetations (Relapse): rabbit, iv, 3 days; for Staphylococcus aureus densities, Kidneys / Staphylococcus aureus densities, Spleen / Staphylococcus aureus densities, Vegetations: 24 h after last dose, mean ± SD; for Staphylococcus aureus densities, Kidneys (Relapse) / Staphylococcus aureus densities, Spleen (Relapse) / Staphylococcus aureus densities, Vegetations (Relapse): then drug-free for an extra 3 days
Experimental: Experimental aortic infective endocarditis model was induced in New Zealand White rabbits with a methicillin-resistant Staphylococcus aureus (MRSA), strain ATCC33591, following trans-carotid-transaortic valve indwelling catheterization.
After aortic catheterization and 24 hr post-infection, animals were randomized to receive either:
i) no therapy (control); ii) endocardisin at 40 mg/kg, iv, twice daily; iii) vancomycin at 15 mg/kg, iv, twice daily; or iv) daptomycin at 12 mg/kg, iv, once daily (the latter two dose-strategies to mimic human-like PK).
Treatments lasted for 3 days. At 24 hours after the last antibiotic dose, half the animals were sacrificed with a lethal dose of sodium pentobarbital to test the treatment efficacies. The remaining animals resided drug-free for an extra 3 days for relapse studies. At sacrifice, vegetations, kidneys and spleen were removed and quantitatively cultured. […] Culture results were expressed as mean log10 CFU per gram of tissue (±SD).

CN[C@H](CC(C)C)C(=O)N[C@H]1C(=O)N[C@@H](CC(N)=O)C(=O)N[C@H]2C(=O)N[C@H]3C(=O)N[C@H](C(=O)N[C@H](C(=O)O)c4cc(O)cc(O)c4-c4cc3ccc4O)[C@H](O)c3ccc(c(Cl)c3)Oc3cc2cc(c3O[C@@H]2O[C@H](CO)[C@@H](O)[C@H](O)[C@H]2O[C@H]2C[C@](C)(N)[C@H](O)[C@H](C)O2)Oc2ccc(cc2Cl)[C@H]1O [vancomycin]
Staphylococcus aureus densities, Kidneys (MRSA ATCC33591 [1]; 15 mg/kg, iv, twice-daily): 3.07 +/− 0.53 log10 CFU/g tissue | Staphylococcus aureus densities, Spleen (MRSA ATCC33591 [1]; 15 mg/kg, iv, twice-daily): 3.02 +/− 0.51 log10 CFU/g tissue | Staphylococcus aureus densities, Vegetations (MRSA ATCC33591 [1]; 15 mg/kg, iv, twice-daily): 5.60 +/− 1.47 log10 CFU/g tissue | MIC (MRSA ATCC33591 [2]; Staphylococcus aureus): 2 µg/mL (≈ 1.38 µM) | Staphylococcus aureus densities, Kidneys (MRSA ATCC33591 [3]; 15 mg/kg, twice-daily): 3.07 +/− 0.53 log10 CFU/g tissue | Staphylococcus aureus densities, Spleen (MRSA ATCC33591 [3]; 15 mg/kg, twice-daily): 3.02 +/− 0.51 log10 CFU/g tissue | Staphylococcus aureus densities, Vegetations (MRSA ATCC33591 [3]; 15 mg/kg, twice-daily): 5.60 +/− 1.47 log10 CFU/g tissue | Staphylococcus aureus densities, Kidneys (Relapse) (MRSA ATCC33591 [3]; 15 mg/kg, twice-daily): 4.69 +/− 1.63 log10 CFU/g tissue | Staphylococcus aureus densities, Spleen (Relapse) (MRSA ATCC33591 [3]; 15 mg/kg, twice-daily): 3.98 +/− 1.27 log10 CFU/g tissue | Staphylococcus aureus densities, Vegetations (Relapse) (MRSA ATCC33591 [3]; 15 mg/kg, twice-daily): 6.36 +/− 1.57 log10 CFU/g tissue

CCCCCCCCCC(=O)N[C@@H](Cc1c[nH]c2ccccc12)C(=O)N[C@H](CC(N)=O)C(=O)N[C@@H](CC(=O)O)C(=O)N[C@@H]1C(=O)NCC(=O)N[C@@H](CCCN)C(=O)N[C@@H](CC(=O)O)C(=O)N[C@H](C)C(=O)N[C@@H](CC(=O)O)C(=O)NCC(=O)N[C@H](CO)C(=O)N[C@@H]([C@H](C)CC(=O)O)C(=O)N[C@@H](CC(=O)c2ccccc2N)C(=O)O[C@@H]1C [daptomycin]
Staphylococcus aureus densities, Kidneys (MRSA ATCC33591 [1]; 12 mg/kg, iv, once-daily): 0.76 +/− 0.53 log10 CFU/g tissue | Staphylococcus aureus densities, Spleen (MRSA ATCC33591 [1]; 12 mg/kg, iv, once-daily): 0.91 +/− 0.53 log10 CFU/g tissue | Staphylococcus aureus densities, Vegetations (MRSA ATCC33591 [1]; 12 mg/kg, iv, once-daily): 1.90 +/− 0.82 log10 CFU/g tissue | MIC (MRSA ATCC33591 [2]; Staphylococcus aureus, study strain MRSA ATCC33591, lowest drug concentration completely inhibiting growth, read-out: MIC): 0.125 µg/mL (≈ 0.0771 µM) | Staphylococcus aureus densities, Kidneys (MRSA ATCC33591 [3]; 12 mg/kg, once-daily): 0.76 +/− 0.52* log10 CFU/g tissue | Staphylococcus aureus densities, Spleen (MRSA ATCC33591 [3]; 12 mg/kg, once-daily): 0.91 +/− 0.53* log10 CFU/g tissue | Staphylococcus aureus densities, Vegetations (MRSA ATCC33591 [3]; 12 mg/kg, once-daily): 1.90 +/− 0.82* log10 CFU/g tissue | Staphylococcus aureus densities, Kidneys (Relapse) (MRSA ATCC33591 [3]; 12 mg/kg, once-daily): 1.68 +/− 2.24** log10 CFU/g tissue | Staphylococcus aureus densities, Spleen (Relapse) (MRSA ATCC33591 [3]; 12 mg/kg, once-daily): 1.30 +/− 1.48** log10 CFU/g tissue | Staphylococcus aureus densities, Vegetations (Relapse) (MRSA ATCC33591 [3]; 12 mg/kg, once-daily): 2.46 +/− 2.36** log10 CFU/g tissue

endocardisin: synthetic defensin; a polypeptide having the amino acid sequence shown in SEQ ID NO: 1 (GFGCNGPWNEDDLRCHNHCKSIKGYKGGYCAKGGFVCKCY)
dose dependence of therapeutic efficacy in all target tissues (MRSA ATCC33591 [1]; 5, 10 or 20 mg/kg, iv, bid): dose-dependent therapeutic efficacy | reduction of MRSA densities in all target tissues vs. vancomycin therapy (MRSA ATCC33591 [1]; endocardisin at 20 mg/kg): significantly greater efficacy | Staphylococcus aureus densities, Kidneys (MRSA ATCC33591 [1]; 5 mg/kg, iv, twice-daily): 4.33 +/− 1.27 log10 CFU/g tissue | Staphylococcus aureus densities, Spleen (MRSA ATCC33591 [1]; 5 mg/kg, iv, twice-daily): 4.61 +/− 1.11 log10 CFU/g tissue | Staphylococcus aureus densities, Vegetations (MRSA ATCC33591 [1]; 5 mg/kg, iv, twice-daily): 6.44 +/− 1.70 log10 CFU/g tissue | Staphylococcus aureus densities, Kidneys (MRSA ATCC33591 [1]; 10 mg/kg, iv, twice-daily): 3.19 +/− 1.06 log10 CFU/g tissue | Staphylococcus aureus densities, Spleen (MRSA ATCC33591 [1]; 10 mg/kg, iv, twice-daily): 2.62 +/− 0.60 log10 CFU/g tissue | Staphylococcus aureus densities, Vegetations (MRSA ATCC33591 [1]; 10 mg/kg, iv, twice-daily): 4.74 +/− 1.84 log10 CFU/g tissue | Staphylococcus aureus densities, Kidneys (MRSA ATCC33591 [1]; 20 mg/kg, iv, twice-daily): 0.61 +/− 0.21 log10 CFU/g tissue | Staphylococcus aureus densities, Spleen (MRSA ATCC33591 [1]; 20 mg/kg, iv, twice-daily): 0.61 +/− 0.12 log10 CFU/g tissue | Staphylococcus aureus densities, Vegetations (MRSA ATCC33591 [1]; 20 mg/kg, iv, twice-daily): 1.57 +/− 0.75 log10 CFU/g tissue | MIC (MRSA ATCC33591 [2]; study strain MRSA ATCC33591, lowest drug concentration completely inhibiting growth): 0.5 micrograms/ml | preventing relapse (MRSA ATCC33591 [3]; 3 days drug-free after 3 days treatment): most effective in preventing relapse | reduction of MRSA densities in all target tissues as compared with vancomycin therapy (MRSA ATCC33591 [3]; endocardisin 40 mg/kg iv twice daily, P<0.001): significantly greater efficacy | Staphylococcus aureus densities, Kidneys (MRSA ATCC33591 [3]; 40 mg/kg, twice-daily): 1.18 +/− 0.75* log10 CFU/g tissue | Staphylococcus aureus densities, Spleen (MRSA ATCC33591 [3]; 40 mg/kg, twice-daily): 1.02 +/− 0.65* log10 CFU/g tissue | Staphylococcus aureus densities, Vegetations (MRSA ATCC33591 [3]; 40 mg/kg, twice-daily): 2.41 +/− 1.50* log10 CFU/g tissue | Staphylococcus aureus densities, Kidneys (Relapse) (MRSA ATCC33591 [3]; 40 mg/kg, twice-daily): 0.75 +/− 0.79* log10 CFU/g tissue | Staphylococcus aureus densities, Spleen (Relapse) (MRSA ATCC33591 [3]; 40 mg/kg, twice-daily): 1.17 +/− 0.70* log10 CFU/g tissue | Staphylococcus aureus densities, Vegetations (Relapse) (MRSA ATCC33591 [3]; 40 mg/kg, twice-daily): 1.45 +/− 0.64* log10 CFU/g tissue
